Read-outs that look alike come from different tables or passages of the source.
Key:
[1] = system: human hepatocarcinoma cells (HepG2); assay: cells; settings: HepG2, read-out: cell mortality
Method: The tumor cell line HepG2 was provided by ATCC (American Type Cell Culture—Mannas, Va., No. HB-8065) and subsequently developed in our laboratory. The cells were cultured in complete medium containing MEM added with 10% FCS (bovine fetal serum), 1 mM Na-pyruvate, 2 mM L-glutamine, 0.1 mM non-essential amino acids and antibiotics (penicillin/streptomycin). The medium, culture products and reagents were purchased from Hyclone-Celbio (Milan, Italy). The experimental design provided for the use of ST1326 and of known antineoplastic drugs, such as doxorubicin, against which the HepG2 cells show a high resistance, to determine the agonist action of the compound. […] In this experiment, the following compounds were added to hemiconfluent HepG2 cells in 96 well plates: • 0.25, 0.5, 5.0 μg/mL doxorubicin; • 0.1 μM ST in combination with 0.25 μg/mL doxorubicin.
After 24 hr incubation, the medium containing different concentrations of doxorubicin and the ST/doxorubicin combination was removed and the cells were washed with complete medium. After 3-day treatment, the antineoplastic effect of the test compound was determined in comparison with control cells incubated in complete medium for the same period of time.
The cell mortality was calculated as the percentage (mean±standard deviation) over 10.000 acquired events.

[2] = system: human hepatocarcinoma cells (HepG2); assay: Cell mortality of HepG2 cells by propidium iodide flow cytofluorimetry; type: cell-based; settings: for mortality at 5 µM / mortality at 20 µM: Homo sapiens
Method: (§1) The cells were seeded in 60 mm-diameter Petri dishes. After plating the cells were grown for 24 hours prior to their treatment.
(§2) In this experiment, increasing amounts of the test molecule were added to hemiconfluent HepG2 cells (Kogure et al., Cancer Chemother. Pharmacol., 2003; DOI. 10.1007/s); the antiproliferative and proapoptotic effects were determined at different times from cell seeding.
(§3) The experimental design in some cases provided for the addition of the test compound once the cell culture had been prepared, in other cases the cultures were exposed to the compound every 24 hours after suitably removing the conditioned medium and washing the cells with new (complete) medium. The cells were counted in a Bürker chamber after suitable dilution with a vital dye to visualize the living cells. In particular, the trypan blue exclusion method was used for cell count at 0, 24 and 48 hour treatment. At least 10 cell counts were performed for each experiment and each treatment was carried out in quadruple.
(§4) A further analysis involved cytofluorimetry utilizing propidium iodide as a marker for […] cells. The test compound was assayed vs. the CTP inhibitor etomoxir to verify whether the tumoricidal effect could be attributed to CPT-1 inhibition or involved novel mechanisms.
In addition, assays on cell viability were carried out using flow cytofluorimetry techniques.
In further experiments the test molecule was added every 24 hours, as above described, after suitably removing the surnatants and washing the cultures with complete medium. […] In the control, the surnatant was eliminated and complete medium alone was added to the cultures.

[3] = system: human hepatocarcinoma cells (HepG2); assay: HepG2 cell count (trypan blue exclusion), antiproliferative and tumoricidal effect; type: cell-based; settings: for number of viable cells versus control cultures (FIGURE): HepG2, less than 10 μM, after 24 hours; for antiproliferative and tumoricidal activity in vitro: tumor cell lines, same experimental conditions for etomoxir and compounds (I)
Method: as §1, §2, §3, §4
The data relating to cell viability are expressed as percentage on the number of viable cells from control cultures (=100%). (E=etomoxir; ST1326=tested compound). […] At the same concentrations etomoxir was ineffective.

[4] = system: AH-130 Yoshida ascites hepatoma; assay: In vivo antineoplastic activity in rats bearing Yoshida tumor; design: species or system rat; settings: 25 mg/Kg i.p., alternate days, 4 treatments, 15 animals
Method: Male Wistar rats (Morini s.r.l.) of 190-200 g weight were maintained at 22±2° C., with a light/dark cycle of 12 hours, and were given free access to water and food (standard diet). Some rats were intraperitoneally inoculated with 10×10^7 cells from AH-130 Yoshida ascites hepatoma (Llovera et al., Int. J. Cancer 61:138-41 (1995); kind gift from Prof. J M Argilès). 5-7 days after the inoculum, the rats developed an ascites that could be detected by macroscopic analysis of the abdomen.
(§5) The experimental protocol provided that 7 days after ascites induction 15 animals (treated group) received 2 ml of a buffered saline containing ST (25 mg/Kg i.p.), whereas other 15 animals (control group) received the buffered saline alone. The same treatment was conducted at alternate days for one week up to a total of 4 treatments for each animal. The dosage was selected on the basis of preliminary studies in which a 6.1 μM plasma concentration of ST was achieved 5 hr after intraperitoneal administration. The animals were subsequently kept under observation for 3 weeks (follow-up), examining the ascites effusion, the presence of subcutaneous neoplastic mass in the inoculum site, and the mortality.

[5] = system: acute leukaemia T cells (Jurkat); assay: Cell mortality of Jurkat cells by propidium iodide flow cytofluorimetry; type: cell-based
Method: The cells were seeded in […] flasks. After plating the cells were grown for 24 hours prior to their treatment.
The experiment was carried out by adding increasing amounts of the test molecule to hemiconfluent Jurkat cells; the proapoptotic effect was determined at different times from culture preparation.
The experimental design provided for the addition of the test compound only at the start of cell culturing, and the determination of the effects at the established times. The data on cell mortality were obtained using propidium iodide flow cytofluorimetry techniques only. The fact that those cells live suspended in culture rendered these assays extremely easy to perform.
For this reason the cell mortality was determined just after 2 hour treatment and at 24, 48 and 72 hrs.
The mortality was calculated as the percentage over 10.000 acquired standard events. Since the results are almost exactly overlapping, with very low deviation in all the readings for each single experiment, the mean values of 5 cytofluorimetric readings are reported in the following Table without standard deviation.

normal PBMCs = assay: Viability test with lymphocytes (PBMCs) taken from healthy individuals; type: cell-based; settings: 72 hours
Method: In addition, in order to exclude the induction of toxicity in normal PBMCs by the test molecule, viability tests were also carried out with lymphocytes taken from healthy individuals and contacted with the test compound.

[6] = Plasma concentration after intraperitoneal administration (preliminary studies); type: in vivo, rat; settings: 5 hr after intraperitoneal administration
Method: as §5

COc1cccc2c1C(=O)c1c(O)c3c(c(O)c1C2=O)C[C@@](O)(C(=O)CO)C[C@@H]3O[C@H]1C[C@H](N)[C@H](O)[C@H](C)O1 [Doxorubicina, doxorubicin]
mortality at 0.25 µg/mL [1]: 11.2 ± 1.5%
mortality at 0.5 µg/mL [1]: 22.7 ± 3.5%
mortality at 5 µg/mL [1]: 48.6 ± 4.1%

CCOC(=O)[C@@]1(CCCCCCOc2ccc(Cl)cc2)CO1 [Etomoxir, etomoxir, reference compound]
mortality at 5 µM ([2]; HepG2, 24 h, read-out: cell mortality, HepG2, 5 μM, treated only once (time 0), 24 hours): 10.8 ± 1.65%
mortality at 20 µM ([2]; HepG2, 24 h, read-out: cell mortality, HepG2, 20 μM, treated only once (time 0), 24 hours): 13 ± 1.07%
mortality at 5 µM ([2]; HepG2, 48 h, read-out: cell mortality, HepG2, 5 μM, treated only once (time 0), 48 hours): 11.8 ± 0.4%
mortality at 20 µM ([2]; HepG2, 48 h, read-out: cell mortality, HepG2, 20 μM, treated only once (time 0), 48 hours): 11.2 ± 1.3%
mortality at 5 µM ([2]; HepG2, 72 h, read-out: cell mortality, HepG2, 5 μM, treated only once (time 0), 72 hours): 10.1 ± 2.1%
mortality at 20 µM ([2]; HepG2, 72 h, read-out: cell mortality, HepG2, 20 μM, treated only once (time 0), 72 hours): 11.7 ± 1.3%
mortality at 5 µM ([2]; HepG2, read-out: cell mortality, HepG2, 5 μM added every 24 hours, 48 hours (second addition)): 10.2 ± 1.7%
mortality at 5 µM ([2]; HepG2, read-out: cell mortality, HepG2, 5 μM added every 24 hours, 72 hours (third addition)): 12.6 ± 1.1%
mortality at 20 µM ([2]; HepG2, read-out: cell mortality, HepG2, 20 μM added every 24 hours, 48 hours (second addition)): 13.9 ± 1.2%
mortality at 20 µM ([2]; HepG2, read-out: cell mortality, HepG2, 20 μM added every 24 hours, 72 hours (third addition)): 14.1 ± 0.9%
number of viable cells versus control cultures (FIGURE) [3]: ineffective
antiproliferative and tumoricidal activity in vitro [3]: did not show any antiproliferative or tumoricidal activity

CCCCCCCCCCCCCCNC(=O)N[C@H](CC(=O)[O-])C[N+](C)(C)C [ST1326, R-4-trimethylammonium-3-(tetradecylcarbamoyl)-Aminobutyrate]
cell mortality ([2]; HepG2, 0.1 μM added every 24 hours, 48 hours (second addition)): 45 ± 2.0%
cell mortality ([2]; HepG2, 0.1 μM added every 24 hours, 72 hours (third addition)): 56.5 ± 1.2%
cell mortality ([2]; HepG2, 0.1 μM, prior experiments, partial tumoricidal effect): ~50%
cell mortality ([2]; HepG2, 0.1 μM, treated only once (time 0), 24 hours): 15.3 ± 2.1%
cell mortality ([2]; HepG2, 0.1 μM, treated only once (time 0), 48 hours): 27.3 ± 2.2%
cell mortality ([2]; HepG2, 0.1 μM, treated only once (time 0), 72 hours): 49.9 ± 1.2%
cell mortality ([2]; HepG2, 5 μM added every 24 hours, 48 hours (second addition)): 64.7 ± 1.7%
cell mortality ([2]; HepG2, 5 μM added every 24 hours, 72 hours (third addition)): 89.7 ± 1.4%
cell mortality ([2]; HepG2, 5 μM, treated only once (time 0), 24 hours): 25.78 ± 1.70%
cell mortality ([2]; HepG2, 5 μM, treated only once (time 0), 48 hours): 56.29 ± 1.51%
cell mortality ([2]; HepG2, 5 μM, treated only once (time 0), 72 hours): 93.48 ± 1.5%
cell mortality ([2]; HepG2, 10 μM added every 24 hours, 48 hours (second addition)): 87.5 ± 2.03%
cell mortality ([2]; HepG2, 10 μM added every 24 hours, 72 hours (third addition)): 91.3 ± 1.9%
cell mortality ([2]; HepG2, 10 μM, treated only once (time 0), 24 hours): 53.21 ± 1.5%
cell mortality ([2]; HepG2, 10 μM, treated only once (time 0), 48 hours): 85.10 ± 0.9%
cell mortality ([2]; HepG2, 10 μM, treated only once (time 0), 72 hours): 96.3 ± 1.1%
cell mortality ([2]; HepG2, 20 μM added every 24 hours, 48 hours (second addition)): 93.9 ± 1.03%
cell mortality ([2]; HepG2, 20 μM added every 24 hours, 72 hours (third addition)): 98.1 ± 0.9%
cell mortality ([2]; HepG2, 20 μM, treated only once (time 0), 24 hours): 88.22 ± 1.9%
cell mortality ([2]; HepG2, 20 μM, treated only once (time 0), 48 hours): 89.10 ± 0.17%
cell mortality ([2]; HepG2, 20 μM, treated only once (time 0), 72 hours): 98.51 ± 1.3%
Presence of cachexy (No. of animals) [4]: 1
Presence of tumor cells in the abdominal cavity (post-mortem examination) (No. of animals) [4]: 0
Presence of tumor mass in the inoculum site (No. of animals) [4]: 0
Survival at 1 week follow-up (No. of survived animals) [4]: 15
Survival at 2 week follow-up (No. of survived animals) [4]: 15
Survival at 3 week follow-up (No. of survived animals) [4]: 15
cell mortality ([5]; 0.1 μM, 2 hours): 3%
cell mortality ([5]; 0.1 μM, 24 hours): 4%
cell mortality ([5]; 0.1 μM, 48 hours): 5%
cell mortality ([5]; 0.1 μM, 72 hours): 13%
cell mortality ([5]; 0.25 μM, 2 hours): 3%
cell mortality ([5]; 0.25 μM, 24 hours): 5%
cell mortality ([5]; 0.25 μM, 48 hours): 8%
cell mortality ([5]; 0.25 μM, 72 hours): 14%
cell mortality ([5]; 0.50 μM, 2 hours): 7%
cell mortality ([5]; 0.50 μM, 24 hours): 15%
cell mortality ([5]; 0.50 μM, 48 hours): 35%
cell mortality ([5]; 0.50 μM, 72 hours): 56%
cell mortality ([5]; 1.0 μM, 2 hours): 6%
cell mortality ([5]; 1.0 μM, 24 hours): 79%
cell mortality ([5]; 1.0 μM, 48 hours): 83%
cell mortality ([5]; 1.0 μM, 72 hours): 90%
cell mortality ([5]; 2.5 μM, 2 hours): 6%
cell mortality ([5]; 2.5 μM, 24 hours): 91%
cell mortality ([5]; 2.5 μM, 48 hours): 97%
cell mortality ([5]; 2.5 μM, 72 hours): 99%
cell mortality ([5]; 5.0 μM, 2 hours): 8%
cell mortality ([5]; 5.0 μM, 24 hours): 99%
cell mortality ([5]; 5.0 μM, 48 hours): 99%
cell mortality ([5]; 5.0 μM, 72 hours): 99%
cell mortality ([5]; 10 μM, 2 hours): 20%
cell mortality ([5]; 10 μM, 24 hours): 99%
cell mortality ([5]; 10 μM, 48 hours): 99%
cell mortality ([5]; 10 μM, 72 hours): 99%
viability test (cell mortality) in PBMCs (normal PBMCs; 1.0 μM): 9%
viability test (cell mortality) in PBMCs (normal PBMCs; 5.0 μM): 10%
viability test (cell mortality) in PBMCs (normal PBMCs; 10 μM): 10%
viability test (cell mortality) in PBMCs (normal PBMCs; 20 μM): 12%
plasma concentration [6]: 6.1 µM
number of viable cells versus control cultures (FIGURE) [3]: remarkable reduction in the number of cells
antiproliferative and tumoricidal activity in vitro [3]: in vitro antiproliferative effect associated with a significant tumoricidal activity
